From BindingDB's records for doi:10.1124/jpet.104.081224 (German Cancer Research Center, 2005) come the findings set out here.

Assay [1] concerns the target T1, Solute carrier organic anion transporter family member 1B3 (Homo sapiens, UniProt Q9NPD5).
T1 sequence (Q9NPD5 whole entry): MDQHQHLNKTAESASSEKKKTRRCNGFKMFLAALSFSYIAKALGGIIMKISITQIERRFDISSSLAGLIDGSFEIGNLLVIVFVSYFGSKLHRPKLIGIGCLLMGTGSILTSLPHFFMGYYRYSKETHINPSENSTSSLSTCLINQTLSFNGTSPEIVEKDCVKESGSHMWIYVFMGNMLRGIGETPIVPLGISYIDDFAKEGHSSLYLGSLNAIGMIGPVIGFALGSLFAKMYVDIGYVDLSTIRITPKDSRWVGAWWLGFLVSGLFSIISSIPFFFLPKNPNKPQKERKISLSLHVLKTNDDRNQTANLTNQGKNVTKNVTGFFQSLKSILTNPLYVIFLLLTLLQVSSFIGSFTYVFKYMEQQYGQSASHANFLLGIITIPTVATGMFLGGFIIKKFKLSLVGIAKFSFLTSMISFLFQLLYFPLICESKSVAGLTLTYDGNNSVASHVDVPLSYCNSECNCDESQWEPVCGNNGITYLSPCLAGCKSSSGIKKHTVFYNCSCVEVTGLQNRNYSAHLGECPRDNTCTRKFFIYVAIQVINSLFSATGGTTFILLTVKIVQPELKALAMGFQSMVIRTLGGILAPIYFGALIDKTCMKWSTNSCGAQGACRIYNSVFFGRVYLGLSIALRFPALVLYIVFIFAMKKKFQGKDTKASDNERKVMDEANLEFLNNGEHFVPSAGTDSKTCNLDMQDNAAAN

The target of assay [2] is ATP-binding cassette sub-family C member 2 (Homo sapiens, UniProt Q92887).
ATP-binding cassette sub-family C member 2, sequence (Q92887 whole entry): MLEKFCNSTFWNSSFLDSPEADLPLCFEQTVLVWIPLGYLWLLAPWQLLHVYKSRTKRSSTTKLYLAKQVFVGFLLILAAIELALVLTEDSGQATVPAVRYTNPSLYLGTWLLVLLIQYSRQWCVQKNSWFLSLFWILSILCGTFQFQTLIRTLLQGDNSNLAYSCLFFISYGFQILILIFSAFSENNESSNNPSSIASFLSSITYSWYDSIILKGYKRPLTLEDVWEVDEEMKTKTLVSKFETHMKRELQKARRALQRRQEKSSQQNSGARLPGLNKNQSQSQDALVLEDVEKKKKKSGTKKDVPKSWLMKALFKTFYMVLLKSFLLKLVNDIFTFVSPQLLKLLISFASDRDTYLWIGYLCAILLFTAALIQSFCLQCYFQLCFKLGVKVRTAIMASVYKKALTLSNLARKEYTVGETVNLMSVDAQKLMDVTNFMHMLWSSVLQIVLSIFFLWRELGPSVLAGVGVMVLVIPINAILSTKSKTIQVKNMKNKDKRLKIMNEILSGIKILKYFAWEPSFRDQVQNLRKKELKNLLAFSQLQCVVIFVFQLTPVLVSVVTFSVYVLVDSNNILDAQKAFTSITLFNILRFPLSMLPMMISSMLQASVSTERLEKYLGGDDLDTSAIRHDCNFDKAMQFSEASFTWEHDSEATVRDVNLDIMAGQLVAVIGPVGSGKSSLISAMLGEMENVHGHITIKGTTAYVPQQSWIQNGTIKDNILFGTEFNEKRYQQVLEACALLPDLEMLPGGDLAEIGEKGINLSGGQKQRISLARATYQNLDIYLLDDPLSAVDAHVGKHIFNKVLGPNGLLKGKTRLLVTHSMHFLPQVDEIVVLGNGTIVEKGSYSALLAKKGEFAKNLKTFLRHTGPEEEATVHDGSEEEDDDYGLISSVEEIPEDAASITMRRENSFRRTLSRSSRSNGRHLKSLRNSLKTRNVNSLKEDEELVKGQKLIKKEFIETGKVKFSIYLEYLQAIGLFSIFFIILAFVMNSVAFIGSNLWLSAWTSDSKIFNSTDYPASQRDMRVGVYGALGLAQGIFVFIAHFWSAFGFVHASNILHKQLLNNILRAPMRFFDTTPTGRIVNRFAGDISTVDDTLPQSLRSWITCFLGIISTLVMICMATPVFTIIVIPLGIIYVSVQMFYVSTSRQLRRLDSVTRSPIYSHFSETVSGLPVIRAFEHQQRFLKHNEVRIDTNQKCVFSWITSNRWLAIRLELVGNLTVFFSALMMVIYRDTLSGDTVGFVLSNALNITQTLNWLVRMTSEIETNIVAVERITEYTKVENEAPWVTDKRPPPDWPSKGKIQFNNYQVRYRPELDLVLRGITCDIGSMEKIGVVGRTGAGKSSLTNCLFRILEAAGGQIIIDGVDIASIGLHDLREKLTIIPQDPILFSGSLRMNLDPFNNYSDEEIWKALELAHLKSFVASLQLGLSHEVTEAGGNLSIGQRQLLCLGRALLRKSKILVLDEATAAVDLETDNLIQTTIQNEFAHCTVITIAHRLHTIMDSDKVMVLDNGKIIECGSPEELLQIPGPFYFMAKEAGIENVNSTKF

Take `CN(C)C(=O)CCSC(SCCC(=O)O)c1cccc(C=Cc2ccc3ccc(Cl)cc3n2)c1` (configuration not stated) [NSC_60719]: the results for the Ki in assay [1] and in assay [2] were 0.6 µM and 8.5 µM, respectively.

For orientation: Ki means a measure of affinity in units of concentration, obtained from inhibition or displacement.
